Laboratory results reported in US20240035092A1, “METHODS, KITS, AND SYSTEMS FOR PREDICTING PATIENT OUTCOMES” (SAPERE BIO, INC., priority 2020, published 2024).

Tests used:
[1] = tested on: patients diagnosed with early-stage breast cancer; assay: CIPN risk prediction score built from the p16Age GAP regression model; parameters: species or system human; details: patient with a CIPN score of 11 (scale 0-20)
Method: Regression models were built by step-wise addition of variables such as co-morbidities, chronological age, p16, or p16Age GAP and interactions between the variables were also considered. […] In contrast, when p16Age GAP was used instead of p16 (Model 2), p16Age GAP was able to replace all co-morbidities, chronological age, and p16 as variables to yield the model with the similar fit (AUC 0.76, NPV 87%). The ROC curve depicted in FIG. 4 was calculated using Model 2. The p16Age GAP-containing model was a strong predictor of the risk of developing CIPN.
The data from the regression model shown in FIG. 4 was used to build a CIPN risk prediction score according to standard methods (see, e.g., Hurria, J. Clin Oncol. (2011) and Hurria J. Clin Oncology, (2016)). All variables were assigned a weight based on their R coefficients in the regression model and the sum of all weights was added to create a final risk score for each patient. For a CIPN risk model, the range was adjusted so the total score scale was 0-20, with a single value for each patient. […] In certain embodiments, this risk differential between regimens of similar efficacy can help guide regimen selection. […]

[2] = tested on: patients diagnosed with early-stage breast cancer; assay: Grade 2 or higher CIPN diagnosed by a clinician (CTCAE-CIPN) during taxane chemotherapy; assay type: in vivo, human; details: adjuvant or neoadjuvant chemotherapy, at any point during chemotherapy, 89 patients on paclitaxel, 70 on docetaxel
Text: One hundred fifty-nine patients diagnosed with early-stage breast cancer and scheduled to undergo adjuvant or neoadjuvant chemotherapy treatment that included a taxane regimen (paclitaxel or docetaxel) were enrolled. To be enrolled in the study, each patient must have met all of the inclusion criteria. Inclusion criteria: women ages 21 or older with histologically confirmed Stage I-III breast cancer and scheduled for adjuvant or neoadjuvant chemotherapy. Venous blood samples were collected from each patient into an EDTA tube during the patient's consultation visit with the oncologist or at their first chemotherapy session before chemotherapy was administered. Additional blood samples were collected at the end of chemotherapy treatment for 124 of the initial 159 patients. Median age of patients at consent was 58 years (24-83 range), median p16 was 9.5 (6.8-11.6 range), and median p16Age GAP was −22 years (−94-37 range). T cells were isolated from blood samples and p16 expression levels were calculated as described in Example 1.
Development of grade 2 or higher CIPN as diagnosed by a clinician (CTCAE-CIPN) at any point during chemotherapy was an endpoint of the study. […]

[3] = tested on: advanced breast cancer, hormone receptor-positive, HER2-negative; assay: Time to progression on CDK4/6i treatment; assay type: in vivo, human; details: Palbociclib with letrozole or fulvestrant
Text: Six patients diagnosed with advanced breast cancer who were hormone receptor-positive, HER2-negative, were enrolled into a study and received a CDK4/6 inhibitor, Palbociclib, in combination with hormone-based therapy (letrozole or fulvestrant). Venous blood samples were collected from each patient into an EDTA tube prior to CDK4/6i administration, and at approximately 3 and 6 months (see FIG. 15 for timing) after the start of drug administration. T cells were isolated from blood samples and p16 expression levels were calculated as described in Example 1. Patients were followed to determine how long they received CDK4/6i treatment before becoming resistant to CDK4/6i and their cancer began to progress again (time to progression).

CIPN patients = details: cited from earlier work

Row | SMILES | risk of CIPN [1] [%] | patients who developed grade 2 or higher CIPN [2] [%] | other results
1 | CC(=O)O[C@H]1C(=O)[C@@]2(C)[C@H]([C@H](OC(=O)c3ccccc3)[C@]3(O)C[C@H](OC(=O)[C@H](O)[C@@H](NC(=O)c4ccccc4)c4ccccc4)C(C)=C1C3(C)C)[C@]1(OC(C)=O)CO[C@@H]1C[C@@H]2O [paclitaxel] | 50 | 46 | 
2 | CC(=O)c1c(C)c2cnc(Nc3ccc(N4CCNCC4)cn3)nc2n(C2CCCC2)c1=O [CDK 4/6i, Palbociclib] |  |  | time to progression (resistance to CDK 4/6i treatment) ([3]; four patients whose p16 expression did not increase above measurement precision): 35-50 months; time to progression (resistance to CDK 4/6i treatment) ([3]; two patients whose p16 expression increased above measurement precision after treatment): 10-20 months
3 | CNCC[C@H](Oc1cccc2ccccc12)c1cccs1 [Duloxetine] |  |  | decrease in pain score, on average (CIPN patients; CIPN patients, improvement derived primarily from patients who received platinum-containing agents): one; benefit on CIPN pain (CIPN patients; patients receiving taxanes): no clear benefit
4 | CC(=O)O[C@@]12CO[C@@H]1C[C@H](O)[C@@]1(C)C(=O)[C@H](O)C3=C(C)[C@@H](OC(=O)[C@H](O)[C@@H](NC(=O)OC(C)(C)C)c4ccccc4)C[C@@](O)([C@@H](OC(=O)c4ccccc4)[C@H]21)C3(C)C [docetaxel] | 9 | 10 | 
